Experimental data from patent publication US20210221785A1, “AMINO-PYRIMIDONYL DERIVATIVES, A PROCESS FOR THEIR PREPARATION AND PHARMACEUTICAL COMPOSITIONS CONTAINING THEM” (LES LABORATOIRES SERVIER, priority 2018, published 2021).

How the values were obtained:
[1] = target: T1, His-His-USP7 (aa208-560, |C315A|) (Homo sapiens, UniProt Q93009, C315A); assay: Evaluation of the inhibition of USP7 by the Fluorescence Intensity (FLINT) readings; type: biochemical; details: 0.25 nM His-His-USP7, compound incubated 60 minutes at 30° C., 500 nM Ubiquitin-Rhodamine-110 substrate; 50% reduction in kinetic rate
T1 construct: His-His-USP7 (aa208-560, |C315A|); His-His (N)
In short: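 IC50 reflects 50% reduction in kinetic rate of rhodamine-110 release (Ex485/Em535, reads every 3 min over 21 min), normalised to DMSO and no-enzyme controls, from an 11-point 4-parameter fit. Substrate is 500 nM Ub-Rh110, added after 60 min, 30 °C preincubation of compound with 0.25 nM USP7 aa208–560 C315A. Buffer is Bicine pH 8.0 with 10% DMSO.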

[2] = system: Z138 mantle cell lymphoma tumour cell lines; assay: In vitro cytotoxicity, MTT assay; type: cell-based; details: Z138 cells exposed to the test compounds for 96 hours, cell viability vs DMSO treated cells
In short: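 Z138 cells exposed to compounds for 96 hours, then MTT added for 4 hours. Viable cells quantified from formazan absorbance at 540 nm.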

T1 sequence (Q93009 208-560 C315A): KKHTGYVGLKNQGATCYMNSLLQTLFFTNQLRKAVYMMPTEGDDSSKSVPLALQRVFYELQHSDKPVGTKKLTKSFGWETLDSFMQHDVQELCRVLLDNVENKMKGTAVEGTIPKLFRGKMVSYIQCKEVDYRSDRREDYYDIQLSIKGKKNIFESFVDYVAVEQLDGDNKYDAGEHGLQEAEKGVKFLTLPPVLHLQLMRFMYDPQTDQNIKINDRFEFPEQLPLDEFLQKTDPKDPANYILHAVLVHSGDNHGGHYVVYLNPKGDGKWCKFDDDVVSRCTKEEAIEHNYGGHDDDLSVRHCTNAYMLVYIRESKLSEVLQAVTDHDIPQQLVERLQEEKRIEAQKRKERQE

Row | SMILES | IC50 [1] [nM] | IC50 ([2]; Homo sapiens, Z-138, 96 h) [µM] | IC50 [2] [µM]
1 | CO[C@@]1(C#Cc2cccnn2)CC[C@@H](C(=O)N2CCC(O)(Cn3cnc(Oc4ccc(F)cc4)c(N)c3=O)CC2)[C@H](c2ccccc2)C1 [Example 147, 5-amino-6-(4-fluorophenoxy)-3-[(4-hydroxy-1-{[(1R,2R,4S)-4-methoxy-2-phenyl-4-[2-(pyridazin-3-yl)ethynyl]cyclohexyl]carbonyl}piperidin-4-yl)methyl]pyrimidin-4-one] | 124 | 0.199 | –
2 | NCCCc1ccc(Oc2ncn(CC3(O)CCN(C(=O)[C@@H]4CCC(F)(F)C[C@H]4c4ccccc4)CC3)c(=O)c2N)cc1 [Example 68, 5-amino-6-[4-(3-aminopropyl)phenoxy]-3-([1-[(1R,2R)-4,4-difluoro-2-phenylcyclohexane-1-carbonyl]-4-hydroxypiperidin-4-yl]methyl)pyrimidin-4(3H)-one] | 39 | 0.454 | –
3 | Nc1c(Oc2ccc3cn[nH]c3c2)ncn(CC2(O)CCN(C(=O)[C@@H]3CCC(F)(F)C[C@H]3c3ccccc3)CC2)c1=O [Example 35, 5-amino-3-({1-[(1R,2R)-4,4-difluoro-2-phenylcyclohexane-1-carbonyl]-4-hydroypiperidin-4-yl}methyl)-6-[(1H-indazol-6-yl)oxy]pyrimidin-4(3H)-one] | 34.2 | 0.081 | –
4 | NCc1cccc(Oc2ncn(CC3(O)CCN(C(=O)[C@@H]4CCC(F)(F)C[C@H]4c4ccccc4)CC3)c(=O)c2N)c1 [Example 61, 5-amino-6-[3-(aminomethyl)phenoxy]-3-({1-[(1R,2R)-4,4-difluoro-2-phenylcyclohexane-1-carbonyl]-4-hydroxypiperidin-4-hydroxypiperidin-4-yl}methyl)pyrimidin-4(3H)-one] | 9.8 | 0.028 | –
5 | Nc1c(Oc2ccc(Cl)cc2)ncn(CC2(O)CCN(C(=O)[C@@H]3CCC(F)(F)C[C@H]3c3ccccc3)CC2)c1=O [Example 11, 5-amino-6-(4-chlorophenoxy)-3-({1-[(1R,2R)-4,4-difluoro-2-phenylcyclohexane-1-carbonyl]-4-hydroxypiperidin-4-yl}methyl)pyrimidin-4(3H)-one] | 58.7 | 0.197 | –
6 | Nc1c(Oc2ccc(F)cc2)ncn(C[C@@]2(O)CCN(C(=O)[C@@H]3CC[C@](F)(C#Cc4ncccn4)C[C@H]3c3ccccc3)CC2(F)F)c1=O [Example 167, 5-amino-3-{[(4S)-3,3-difluoro-1-[(1R,2R,4R)-4-fluoro-2-phenyl-4-[2-(pyrimidin-2-yl)ethynyl]cyclohexanecarbonyl]-4-hydroxypiperldin-4-yl]methyl}-6-(4-fluorophenoxy)-3,4-dihydropyrimidin-4-one] | 27.2 | 0.0124 | –
7 | C#C[C@@]1(F)CC[C@@H](C(=O)N2CCC(O)(Cn3cnc(Oc4ccc(F)cc4)c(N)c3=O)CC2)[C@H](c2ccccc2)C1 [Example 123, 5-amino-3-({1-[(1R,2R,4R)-4-ethynyl-4-fluoro-2-phenylcyclohexanecarbonyl]-4-hydroxypiperidin-4-yl}methyl)-6-(4-fluorophenoxy)-3,4-dihydropyrimidin-4-one] | 35.4 | 0.0466 | –
8 | Nc1c(Oc2ccc(F)cc2)ncn(CC2(O)CCN(C(=O)[C@@H]3CC[C@](O)(Cc4ccccc4)C[C@H]3c3ccccc3)CC2)c1=O (relative stereo) [Example 94, rel-5-amino-3-({1-[(1R,2R,4R)-4-benzyl-4-hydroxy-2-phenyl-cyclohexanecarbonyl]-4-hydroxypiperidin-4-yl}methyl)-6-(4-fluorophenoxy)-3,4-dihydropyrimidin-4-one] | 63.4 | 0.0494 | –
9 | NC(=O)CCc1ccc(Oc2ncn(CC3(O)CCN(C(=O)[C@@H]4CCC(F)(F)C[C@H]4c4ccccc4)CC3)c(=O)c2N)cc1 [Example 67, 3-(4-{[5-amino-1-({1-[(1R,2R)-4,4-difluoro-2-phenylcyclohexane-1-carbonyl]-4-hydroxypiperidin-4-yl}methyl)-6-oxo-1,6-dihydropyrimidin-4-yl]oxy}phenyl)propanamide] | 75 | 0.668 | –
10 | Nc1c(Oc2ccc(F)cc2)ncn(CC2(O)CCN(C(=O)[C@@H]3CCC(F)(F)C[C@H]3c3ccccc3)CC2(F)F)c1=O (stereo partly drawn) [Example 45, 5-amino-3-({1-[(1R,2R)-4,4-difluoro-2-phenylcyclohexane-1-carbonyl]-3,3-difluoro-4-hydroxypiperidin-4-yl}methyl)-6-(4-fluorophenoxy)pyrimidin-4(3H)-one] | 57 | 0.115 | –
11 | Nc1c(Oc2ccc(F)cc2)ncn(CC2(O)CCN(C(=O)[C@@H]3CC[C@@](F)(C#Cc4ccc(F)cn4)C[C@H]3c3ccccc3)CC2)c1=O [Example 134, 5-amino-3-[(1-{[(1R,2R,4S)-4-fluoro-4-[2-(5-fluoropyridin-2-yl)ethynyl]-2-phenylcyclohexyl]carbonyl}-4-hydroxypiperidin-4-yl)methyl]-6-(4-fluorophenoxy)pyrimidin-4-one] | 80.7 | 0.0309 | –
12 | CO[C@]1(C#Cc2cnccn2)CC[C@@H](C(=O)N2CCC(O)(Cn3cnc(Oc4ccc(F)cc4)c(N)c3=O)CC2)[C@H](c2ccccc2)C1 [Example 156, 5-amino-6-(4-fluorophenoxy)-3-({4-hydroxy-1-[(1R,2R,4R)-4-methoxy-2-phenyl-4-[2-(pyrazin-2-yl)ethynyl]cyclohexanecarbonyl]piperidin-4-yl}methyl)-3,4-dihydropyrimidin-4-one] | 29.6 | 0.00653 | –
13 | Nc1c(Oc2ccc(C=O)cc2)ncn(CC2(O)CCN(C(=O)[C@@H]3CCC(F)(F)C[C@H]3c3ccccc3)CC2)c1=O [Example 44] | 38.7 | 0.0736 | –
14 | Nc1c(Oc2ccccc2)ncn(CC2(O)CCN(C(=O)[C@@H]3CCC(F)(F)C[C@H]3c3ccccc3)CC2)c1=O [Example 1, 5-amino-3-({1-[(1R,2R)-4,4-difluoro-2-phenylcyclohexane-1-carbonyl]-4-hydroxypiperidin-4-yl}methyl)-6-phenoxypyrimidin-4(3H)-one] | 43.7 | 0.0866 | –
15 | Nc1c(Oc2ccc(F)cc2)ncn(CC2(O)CCN(C(=O)[C@@H]3CC[C@](F)(C#Cc4ccc(F)cn4)C[C@H]3c3ccccc3)CC2)c1=O [Example 133, 5-amino-3-[(1-{[(1R,2R4R)-4-fluoro-4-[2-(5-fluoropyridin-2-yl)ethynyl]-2-phenylcyclohexyl]carbonyl}-4-hydroxypiperidin-4-yl)methyl]-6-(4-fluorophenoxy)pyrimidin-4-one] | 31.5 | 0.0187 | –
16 | CO[C@]1(C#Cc2nccc(C)n2)CC[C@@H](C(=O)N2CC[C@](O)(Cn3cnc(Oc4ccc(F)cc4)c(N)c3=O)C(F)(F)C2)[C@H](c2ccccc2)C1 [Example 176, 5-amino-3-{[(4S)-3,3-difluoro-4-hydroxy-1-[(1R,2R,4R)-4-methoxy-4-[2-(4-methylpyrimidin-2-yl)ethynyl]-2-phenylcyclohexanecarbonyl]piperidin-4-yl]methyl}-6-(4-fluorophenoxy)-3,4-dihydropyrimidin-4-one] | 77.2 | 0.037 | –
17 | CO[C@]1(C#Cc2cnc(C)nc2)CC[C@@H](C(=O)N2CC[C@](O)(Cn3cnc(Oc4ccc(F)cc4)c(N)c3=O)C(F)(F)C2)[C@H](c2ccccc2)C1 [Example 177, 5-amino-3-{[(4S)-3,3-difluoro-4-hydroxy-1-[(1R,2R,4R)-4-methoxy-4-[2-(2-methylpyrimidin-5-yl)ethynyl]-2-phenylcyclohexanecarbonyl]piperidin-4-yl]methyl}-6-(4-fluorophenoxy)-3,4-dihydropyrimidin-4-one] | 33.3 | 0.0218 | –
18 | Cc1nccnc1C#C[C@@]1(F)CC[C@@H](C(=O)N2CCC(O)(Cn3cnc(Oc4ccc(F)cc4)c(N)c3=O)CC2)[C@H](c2ccccc2)C1 [Example 148, 5-amino-3-({1-[(1R,2R,4R)-4-fluoro-4-[2-(3-methylpyrazin-2yl)ethynyl]-2-phenylcyclohexanecarbonyl]-4-hydroxypiperidin-4-yl}methyl)-6-(4-fluorophenoxy)-3,4-dihydropyrimidin-4-one] | 26.6 | 0.0101 | –
19 | Cc1ccc(C#C[C@@]2(F)CC[C@@H](C(=O)N3CC[C@](O)(Cn4cnc(Oc5ccc(F)cc5)c(N)c4=O)C(F)(F)C3)[C@H](c3ccccc3)C2)nn1 [Example 162, 5-amino-3-[[(4S)-3,3-difluoro-1-[(1R,2R,4R)-4-fluoro-4-[2-(6-methylpyridazin-3-yl)ethynyl]-2-phenylcyclohexanecarbonyl]-4-hydroxypiperidin-4-yl]methyl]-6-(4-fluorophenoxy)-3,4-dihydropyrimidin-4-one] | 10 | 0.00647 | –
20 | CC(N)c1ccc(Oc2ncn(CC3(O)CCN(C(=O)[C@@H]4CCC(F)(F)C[C@H]4c4ccccc4)CC3)c(=O)c2N)cc1 (single isomer, unassigned; diastereoisomer 2) [Example 55] | 8.69 | – | 0.264
21 | CC(N)c1ccc(Oc2ncn(CC3(O)CCN(C(=O)[C@@H]4CCC(F)(F)C[C@H]4c4ccccc4)CC3)c(=O)c2N)cc1 (single isomer, unassigned; diastereoisomer 1) [Example 54] | 7.4 | 0.273 | –
22 | CO[C@]1(C#Cc2ccccn2)CC[C@@H](C(=O)N2CC[C@](O)(Cn3cnc(Oc4ccc(F)cc4)c(N)c3=O)C(F)(F)C2)[C@H](c2ccccc2)C1 [Example 166, 5-amino-3-{[(4S)-3,3-difluoro-4-hydroxy-1-[(1R,2R,4R)-4-methoxy-2-phenyl-4-[2-(pyridin-2-yl)ethynyl]cyclohexanecarbonyl]piperidin-4-yl]methyl}-6-(4-fluorophenoxy)-3,4-dihydropyrimidin-4-one] | 11.2 | 0.00943 | –
